Publication PMC4138991, “Building a Better Dynasore: The Dyngo Compounds Potently Inhibit Dynamin and Endocytosis” (Traffic (Copenhagen, Denmark), 2013)

How the values were obtained:
[1] = molecular target: T1, DynI (rec), full-length human dynamin I (Homo sapiens, UniProt Q05193); assay: PS-stimulated GTPase assay with recombinant dynamin I from Sf21 cells; type: biochemical; settings: for IC50: DynI 20 nM, no unit in table; for DynI selectivity ratio: DynI (rec) versus DynII (rec)
T1 sequence (Q05193 1-864): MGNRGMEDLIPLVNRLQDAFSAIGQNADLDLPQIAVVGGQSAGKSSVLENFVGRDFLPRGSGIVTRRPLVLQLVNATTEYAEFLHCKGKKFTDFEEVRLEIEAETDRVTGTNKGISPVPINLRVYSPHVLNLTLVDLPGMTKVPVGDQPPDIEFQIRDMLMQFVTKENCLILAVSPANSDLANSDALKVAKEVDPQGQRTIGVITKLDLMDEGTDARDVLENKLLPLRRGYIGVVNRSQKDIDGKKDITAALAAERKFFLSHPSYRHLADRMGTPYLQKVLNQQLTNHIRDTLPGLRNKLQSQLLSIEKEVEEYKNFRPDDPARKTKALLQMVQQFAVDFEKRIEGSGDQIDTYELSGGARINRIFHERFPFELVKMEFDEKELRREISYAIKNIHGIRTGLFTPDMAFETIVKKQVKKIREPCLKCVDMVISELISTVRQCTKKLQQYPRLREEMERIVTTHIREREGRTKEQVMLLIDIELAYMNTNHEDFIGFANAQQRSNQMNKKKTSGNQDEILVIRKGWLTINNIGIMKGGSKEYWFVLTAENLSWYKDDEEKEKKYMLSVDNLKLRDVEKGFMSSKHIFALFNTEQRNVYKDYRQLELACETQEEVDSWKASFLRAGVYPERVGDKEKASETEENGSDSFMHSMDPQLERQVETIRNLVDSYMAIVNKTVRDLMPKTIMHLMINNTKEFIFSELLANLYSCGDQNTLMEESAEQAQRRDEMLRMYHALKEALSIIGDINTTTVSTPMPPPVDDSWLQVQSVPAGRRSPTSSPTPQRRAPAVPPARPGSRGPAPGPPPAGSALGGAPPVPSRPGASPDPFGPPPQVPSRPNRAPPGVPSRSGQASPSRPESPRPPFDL
Source text: Recombinant dynamin I was used only for the data in Table 2. The dynamin antibodies were from: Dynamin I—in‐house YF2 antibodies, raised in rabbits against two different synthetic peptides: dynamin I 629‐647 ([…]) and dynamin I 765–778 ([…]), used at 1/2000 dilution, as previously described 53; Dynamin II—Santa Cruz (C‐18, sc‐6400, used at 1/1000) and Dynamin III—Santa Cruz (P‐13, sc‐69472, used at 1/500 dilution).
The Malachite Green colorimetric GTPase assay was as described 10. Dynamin I activity was measured in its SAI activity state or was stimulated by three different methods. As each stimulus activates dynamin to different extents, each assay required different dynamin concentrations. First, maximal dynamin activity was stimulated by sonicated PS liposomes 10. Purified dynamin I (10–20 nM, diluted in: 6 mM Tris–HCl, 20 mM NaCl and 0.01% Tween 80, pH 7.4) was incubated in 96‐well plates in GTPase buffer (5 mM Tris–HCl, 10 mM NaCl, 2 mM Mg^2+, 0.05% Tween 80, pH 7.4, 1 µg/mL leupeptin and 0.1 mM PMSF) and GTP 0.3 mM in the presence of test compound for 30 min at 37°C in a final assay volume of 150 μL. Reactions were terminated with 10 μL of 0.5 M ethylenediaminetetraacetic acid (EDTA) pH 7.4 and Malachite Green solution (40 μL: 2% w/v ammonium molybdate tetrahydrate, 0.15% w/v malachite green and 4 M HCl) was added for 5 min. Second, dynamin (20 nM) was stimulated by 10 µg/mL of taxol‐stabilized preformed bovine brain microtubules (Cytoskeleton, Inc) using the same protocol. Third, dynamin I (50 nM) was stimulated by 1 μM of recombinant growth factor receptor‐bound protein 2 (grb2), a SH3 (Src homology)‐containing protein that stimulates dynamin about 5–10 times less efficiently than liposomes or microtubules 54. The assay conditions were as described above. Finally, dynamin (500 nM) SAI activity was measured using high concentrations of dynamin, which promote its cooperative self‐assembly into rings (but not helices) 26. The final DMSO concentration in the GTPase or endocytosis assays was at most 3.3 or 1%, respectively, but typically was at 1%. The GTPase assay for dynamin I was unaffected by DMSO up to 3.3%. Compounds were dissolved as 30 mM stocks in 100% DMSO. These stock solutions can be stored at −20°C for several months. Compounds were subsequently diluted into solutions of 50% DMSO made up in 20 mM Tris–HCl pH 7.4 and diluted again into the final assay. For analysis of the kinetics of 4a inhibition, dynamin I at a final concentration of 17 nM was incubated with GTPase buffer containing PS (2 µg/mL) and varying amounts of GTP (50–250 μM) in the presence of 4a at a concentration range between 0.5 and 6 μM. […] After the Vmax and Km values were determined, the data were transformed using the Lineweaver–Burke equation, 1/v = 1/Vmax + (Km/Vmax)(1/[S]).

grb2-stimulated dynamin = test system: grb2-stimulated dynamin; parameters: method as in PMID 16740485; settings: no detergent, read-out: previously estimated IC50 for dynasore; cited from earlier work

| SMILES | IC50 ([1]; Absence of Tween) | DynI selectivity ratio ([1]; Absence of Tween) | IC50 ([1]; Presence of Tween) | DynI selectivity ratio ([1]; Presence of Tween) | IC50 (grb2-stimulated dynamin) |
| --- | --- | --- | --- | --- | --- |
| O=C(N/N=C/c1cc(O)c(O)cc1O)c1cc2ccccc2cc1O [4a, (E)-3-Hydroxy-N'-(2,4,5-trihydroxybenzylidene) -2-naphthohydrazide] | 1.1 ± 0.2 µM | 2.1 | 30 ± 8.2 µM | 3.1 | – |
| O=C(N/N=C/c1ccc(O)c(O)c1)c1cc2ccccc2cc1O [Dynasore, (E)-N'-(3,4-Dihydroxybenzylidene)-3-hydroxy-2-naphthohydrazide] | – | – | – | – | ~15 µM |
